From PubChem BioAssay AID248 (DTP/NCI, 2004)
Inconclusive results and toxic doses are left out.

Test system: L1210 leukemia ip in BDF1 mice, survival T/C
Assay: NCI In Vivo Anticancer Drug Screen. Data for tumor model L1210 Leukemia (intraperitoneal) in B6D2F1 (BDF1) mice
Conditions: endpoint: mean survival time, higher = longer survival
How it was run: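 Tumor was transplanted into mice, which were then dosed with test compound or vehicle alone. Survival was recorded for each group, and the treated figure was expressed relative to the control figure.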

[1] = dose: 100.0 mg/kg/injection, schedule: Q04DX002 (ip), vehicle: saline
[2] = dose: 200.0 mg/kg/injection, schedule: Q04DX002 (ip), vehicle: saline
[3] = dose: 400.0 mg/kg/injection, schedule: Q04DX002 (ip), vehicle: saline
[4] = dose: 100.0 mg/kg/injection, schedule: Q04DX002 (ip), vehicle: Klucel (hydroxypropylcellulose) (HPC)
[5] = dose: 100.0 mg/kg/injection, schedule: Q04DX003 (ip), vehicle: saline
[6] = dose: 100.0 mg/kg/injection, schedule: Q01DX009 (ip), vehicle: Klucel (hydroxypropylcellulose) (HPC)
[7] = dose: 100.0 mg/kg/injection, schedule: Q04DX003 (ip), vehicle: Klucel (hydroxypropylcellulose) (HPC)
[8] = dose: 200.0 mg/kg/injection, schedule: Q04DX003 (ip), vehicle: Klucel (hydroxypropylcellulose) (HPC)
[9] = dose: 400.0 mg/kg/injection, schedule: Q01DX009 (ip), vehicle: Klucel (hydroxypropylcellulose) (HPC)
[10] = dose: 400.0 mg/kg/injection, schedule: Q04DX003 (ip), vehicle: Klucel (hydroxypropylcellulose) (HPC)
[11] = dose: 100.0 mg/kg/injection, schedule: Q01DX009 (ip), vehicle: saline with Tween-80
[12] = dose: 100.0 mg/kg/injection, schedule: Q04DX003 (ip), vehicle: saline with Tween-80
[13] = dose: 200.0 mg/kg/injection, schedule: Q04DX003 (ip), vehicle: saline with Tween-80
[14] = dose: 200.0 mg/kg/injection, schedule: Q01DX009 (ip), vehicle: saline with Tween-80
[15] = dose: 400.0 mg/kg/injection, schedule: Q04DX003 (ip), vehicle: saline with Tween-80
[16] = dose: 200.0 mg/kg/injection, schedule: Q04DX003 (ip), vehicle: saline
[17] = dose: 400.0 mg/kg/injection, schedule: Q04DX003 (ip), vehicle: saline
[18] = dose: 400.0 mg/kg/injection, schedule: Q01DX009 (ip), vehicle: saline with Tween-80

CC(C)(CC(=O)O)NC(=O)CN
T/C [1]: 94 % of control
T/C [2]: 91 % of control
T/C [3]: 97 % of control

CNc1nc2c(=O)[nH]c(N)nc2n1C1OC(CO)C(O)C1O (stereo not given)
T/C (dose: 50.0 mg/kg/injection, schedule: Q01DX001 (ip), vehicle: carboxymethylcellulose (CMC)): 101 % of control
T/C (dose: 100.0 mg/kg/injection, schedule: Q01DX001 (ip), vehicle: carboxymethylcellulose (CMC)): 104 % of control
T/C (dose: 200.0 mg/kg/injection, schedule: Q01DX001 (ip), vehicle: carboxymethylcellulose (CMC)): 95 % of control
T/C (dose: 400.0 mg/kg/injection, schedule: Q01DX001 (ip), vehicle: carboxymethylcellulose (CMC)): 89 % of control

COc1ccc2c3c1O[C@H]1C(O)C=C[C@H]4[C@@H](C2)N(C)CC[C@]314 (stereo not given in full)
T/C (dose: 100.0 mg/kg/injection, schedule: Q01DX001 (ip), vehicle: saline): 95 % of control
T/C (dose: 200.0 mg/kg/injection, schedule: Q01DX001 (ip), vehicle: saline): 95 % of control

Cc1cccc(C2=NCCN2)c1C
T/C (dose: 5.0 mg/kg/injection, schedule: Q01DX009 (ip), vehicle: saline with Tween-80): 97 % of control
T/C (dose: 10.0 mg/kg/injection, schedule: Q01DX009 (ip), vehicle: saline with Tween-80): 103 % of control
T/C (dose: 20.0 mg/kg/injection, schedule: Q01DX009 (ip), vehicle: saline with Tween-80): 97 % of control

N=C(N)SCc1ccc(Cl)cc1N
T/C (dose: 25.0 mg/kg/injection, schedule: Q04DX002 (ip), vehicle: Klucel (hydroxypropylcellulose) (HPC)): 97 % of control
T/C (dose: 50.0 mg/kg/injection, schedule: Q04DX002 (ip), vehicle: Klucel (hydroxypropylcellulose) (HPC)): 102 % of control
T/C [4]: 103 % of control

CC1(c2cccc(Cl)c2)NC(=O)NC1=O (stereo not given)
T/C [4]: 112 % of control
T/C (dose: 200.0 mg/kg/injection, schedule: Q04DX002 (ip), vehicle: Klucel (hydroxypropylcellulose) (HPC)): 105 % of control
T/C (dose: 400.0 mg/kg/injection, schedule: Q04DX002 (ip), vehicle: Klucel (hydroxypropylcellulose) (HPC)): 108 % of control

NC(N)=NC1CCCC1
T/C [5]: 104 % of control

CC(C)(C)C1CCC(NC(=O)CCl)CC1 (stereo not given)
T/C (dose: 50.0 mg/kg/injection, schedule: Q04DX003 (ip), vehicle: Klucel (hydroxypropylcellulose) (HPC)): 98 % of control
T/C [6]: 103 % of control
T/C [7]: 96 % of control
T/C [8]: 102 % of control
T/C [9]: 94 % of control
T/C [10]: 104 % of control

O=C1SC2(CCCCC2)SC1=O
T/C (dose: 50.0 mg/kg/injection, schedule: Q01DX009 (ip), vehicle: saline with Tween-80): 110 % of control
T/C [11]: 113 % of control
T/C [12]: 110 % of control
T/C [13]: 100 % of control

CCOC(=O)c1cc(=O)c2c(ccc3ccccc32)[nH]1
T/C [7]: 94 % of control
T/C [8]: 93 % of control

c1ccc2c(c1)CCc1c-2[nH]c2ccccc12
T/C [11]: 96 % of control
T/C [14]: 94 % of control

CC(=O)NC1CONC1=O (stereo not given)
T/C [12]: 98 % of control
T/C [13]: 98 % of control
T/C [15]: 94 % of control

CCOC(=O)C1CC1(C)c1ccccc1 (stereo not given)
T/C (dose: 100.0 mg/kg/injection, schedule: Q04DX002 (ip), vehicle: saline with Tween-80): 97 % of control
T/C (dose: 200.0 mg/kg/injection, schedule: Q04DX002 (ip), vehicle: saline with Tween-80): 93 % of control
T/C (dose: 400.0 mg/kg/injection, schedule: Q04DX002 (ip), vehicle: saline with Tween-80): 90 % of control

CC(=O)NC(c1ccccc1)C(NC(=O)c1ccccc1)c1ccccc1 (stereo not given)
T/C (dose: 100.0 mg/kg/injection, schedule: Q01DX001 (ip), vehicle: saline with Tween-80): 92 % of control
T/C (dose: 200.0 mg/kg/injection, schedule: Q01DX001 (ip), vehicle: saline with Tween-80): 94 % of control
T/C (dose: 400.0 mg/kg/injection, schedule: Q01DX001 (ip), vehicle: saline with Tween-80): 89 % of control

CCNC(=O)CS(=O)(=O)c1ccc(N)cc1
T/C [5]: 100 % of control
T/C [16]: 108 % of control
T/C [17]: 105 % of control

CCOC(=O)NC(=S)n1ncnc1N
T/C (dose: 6.25 mg/kg/injection, schedule: Q01DX009 (ip), vehicle: saline with Tween-80): 105 % of control
T/C (dose: 12.5 mg/kg/injection, schedule: Q01DX009 (ip), vehicle: saline with Tween-80): 97 % of control
T/C (dose: 25.0 mg/kg/injection, schedule: Q01DX009 (ip), vehicle: saline with Tween-80): 100 % of control
T/C (dose: 35.0 mg/kg/injection, schedule: Q01DX009 (ip), vehicle: saline with Tween-80): 86 % of control

CC(C)(C)CC(C)(C)NS(=O)(=O)NC(C)(C)CC(C)(C)C
T/C [11]: 103 % of control
T/C [14]: 93 % of control
T/C [18]: 92 % of control

CC(=O)Nc1cc(C)no1
T/C (dose: 100.0 mg/kg/injection, schedule: Q01DX009 (ip), vehicle: saline): 103 % of control
T/C [7]: 102 % of control
T/C (dose: 200.0 mg/kg/injection, schedule: Q01DX009 (ip), vehicle: saline): 100 % of control
T/C [8]: 96 % of control
T/C (dose: 400.0 mg/kg/injection, schedule: Q01DX009 (ip), vehicle: saline): 101 % of control
T/C [10]: 92 % of control

O=C(NCC1=NCCN1)c1ccccc1
T/C [1]: 96 % of control
T/C [2]: 89 % of control
T/C [3]: 96 % of control

CCOC(=O)NOP(=O)(N1CC1(C)C)N1CC1(C)C (stereo not given)
T/C [1]: 207 % of control
T/C [2]: 86 % of control

COc1ccc(C(=O)C(C)C(O)C(=O)O)c(O)c1C (stereo not given)
T/C [11]: 96 % of control
T/C [5]: 97 % of control
T/C [14]: 100 % of control
T/C [16]: 94 % of control
T/C [18]: 102 % of control
T/C [17]: 98 % of control

CCCCCCCCCCSCCSCCSCCCCCCCCCC
T/C [7]: 94 % of control

COc1ccc([N+](=O)[O-])cc1NC(=O)NCCCl
T/C (dose: 75.0 mg/kg/injection, schedule: Q01DX009 (ip), vehicle: Klucel (hydroxypropylcellulose) (HPC)): 108 % of control
T/C [7]: 93 % of control
T/C (dose: 150.0 mg/kg/injection, schedule: Q01DX009 (ip), vehicle: Klucel (hydroxypropylcellulose) (HPC)): 95 % of control
T/C [8]: 96 % of control
T/C (dose: 300.0 mg/kg/injection, schedule: Q01DX009 (ip), vehicle: Klucel (hydroxypropylcellulose) (HPC)): 102 % of control
T/C [10]: 98 % of control

O=C(NC(CBr)CCCBr)c1ccc([N+](=O)[O-])cc1 (stereo not given)
T/C [12]: 105 % of control
T/C [13]: 94 % of control
T/C [15]: 94 % of control

CC(C)CNC(=O)Cc1ccc(N(CCCl)CCCl)cc1
T/C [7]: 108 % of control
T/C [8]: 108 % of control
T/C [10]: 112 % of control

O=c1oc2ccc(Cl)cc2c2ccccc12
T/C [7]: 98 % of control
T/C [8]: 100 % of control
T/C [10]: 104 % of control

Cc1ccc(C(=O)CCCC(=O)O)c(O)c1
T/C (dose: 100.0 mg/kg/injection, schedule: Q01DX001 (ip), vehicle: Klucel (hydroxypropylcellulose) (HPC)): 96 % of control
T/C [6]: 97 % of control
T/C [7]: 102 % of control
T/C (dose: 200.0 mg/kg/injection, schedule: Q01DX001 (ip), vehicle: Klucel (hydroxypropylcellulose) (HPC)): 104 % of control
T/C (dose: 200.0 mg/kg/injection, schedule: Q01DX009 (ip), vehicle: Klucel (hydroxypropylcellulose) (HPC)): 93 % of control
T/C [8]: 112 % of control
T/C (dose: 400.0 mg/kg/injection, schedule: Q01DX001 (ip), vehicle: Klucel (hydroxypropylcellulose) (HPC)): 95 % of control
T/C [9]: 92 % of control
T/C [10]: 100 % of control

Cc1cc(C)c2nc(N)sc2c1
T/C [12]: 94 % of control

[N-]=[N+]=C1N=CN=C1c1ncnn1Cc1ccccc1
T/C (dose: 5.0 mg/kg/injection, schedule: Q01DX001 (ip), vehicle: other): 105 % of control
T/C (dose: 10.0 mg/kg/injection, schedule: Q01DX001 (ip), vehicle: other): 97 % of control
T/C (dose: 20.0 mg/kg/injection, schedule: Q01DX001 (ip), vehicle: other): 94 % of control
T/C (dose: 40.0 mg/kg/injection, schedule: Q01DX001 (ip), vehicle: other): 94 % of control
T/C (dose: 80.0 mg/kg/injection, schedule: Q01DX001 (ip), vehicle: other): 101 % of control
